Experimental data from ChEMBL document CHEMBL4251634, “Synthesis and antimicrobial activity of pyrimidinyl 1,3,4-oxadiazoles, 1,3,4-thiadiazoles and 1,2,4-triazoles” (2018).

What was measured:
Type in all cases: functional
Bacillus subtilis [1] = test: Antibacterial activity against Bacillus subtilis assessed as diameter of inhibition zone at 100 ug/well after 24 hrs by agar well diffusion method; details: read-out: DIZ
Klebsiella pneumoniae [2] = test: Antibacterial activity against Klebsiella pneumoniae assessed as diameter of inhibition zone at 12.5 ug/well after 24 hrs by agar well diffusion method; details: read-out: DIZ
Pseudomonas aeruginosa [3] = test: Antibacterial activity against Pseudomonas aeruginosa assessed as diameter of inhibition zone at 25 ug/well after 24 hrs by agar well diffusion method; details: read-out: DIZ
Staphylococcus aureus [4] = test: Antibacterial activity against Staphylococcus aureus assessed as diameter of inhibition zone at 25 ug/well after 24 hrs by agar well diffusion method; details: read-out: DIZ
Klebsiella pneumoniae [5] = test: Antibacterial activity against Klebsiella pneumoniae assessed as diameter of inhibition zone at 50 ug/well after 24 hrs by agar well diffusion method; details: read-out: DIZ
Penicillium chrysogenum [6] = test: Antifungal activity against Penicillium chrysogenum assessed as diameter of inhibition zone at 100 ug/well after 48 hrs by agar well diffusion method; details: read-out: DIZ
Aspergillus niger [7] = test: Antifungal activity against Aspergillus niger after 48 hrs by turbidity-based broth dilution assay
Aspergillus niger [8] = test: Antifungal activity against Aspergillus niger assessed as diameter of inhibition zone at 100 ug/well after 48 hrs by agar well diffusion method; details: read-out: DIZ
Aspergillus niger [9] = test: Fungicidal activity against Aspergillus niger incubated for 48 hrs followed by regrowth on PDA plates for 48 hrs
Bacillus subtilis [10] = test: Bactericidal activity against Bacillus subtilis incubated for 24 hrs followed by regrowth on sterile nutrient broth for 24 hrs; parameters: unit not given here
Pseudomonas aeruginosa [11] = test: Antibacterial activity against Pseudomonas aeruginosa after 24 hrs by turbidity-based broth dilution assay
Staphylococcus aureus [12] = test: Bactericidal activity against Staphylococcus aureus incubated for 24 hrs followed by regrowth on sterile nutrient broth for 24 hrs
Penicillium chrysogenum [13] = test: Antifungal activity against Penicillium chrysogenum assessed as diameter of inhibition zone at 50 ug/well after 48 hrs by agar well diffusion method; details: read-out: DIZ
Bacillus subtilis [14] = test: Antibacterial activity against Bacillus subtilis assessed as diameter of inhibition zone at 25 ug/well after 24 hrs by agar well diffusion method; details: read-out: DIZ
Aspergillus niger [15] = test: Antifungal activity against Aspergillus niger assessed as diameter of inhibition zone at 50 ug/well after 48 hrs by agar well diffusion method; details: read-out: DIZ
Bacillus subtilis [16] = test: Antibacterial activity against Bacillus subtilis assessed as diameter of inhibition zone at 12.5 ug/well after 24 hrs by agar well diffusion method; details: read-out: DIZ
Staphylococcus aureus [17] = test: Antibacterial activity against Staphylococcus aureus after 24 hrs by turbidity-based broth dilution assay
Klebsiella pneumoniae [18] = test: Antibacterial activity against Klebsiella pneumoniae assessed as diameter of inhibition zone at 25 ug/well after 24 hrs by agar well diffusion method; details: read-out: DIZ
Staphylococcus aureus [19] = test: Antibacterial activity against Staphylococcus aureus assessed as diameter of inhibition zone at 12.5 ug/well after 24 hrs by agar well diffusion method; details: read-out: DIZ
Penicillium chrysogenum [20] = test: Fungicidal activity against Penicillium chrysogenum incubated for 48 hrs followed by regrowth on PDA plates for 48 hrs
Pseudomonas aeruginosa [21] = test: Antibacterial activity against Pseudomonas aeruginosa assessed as diameter of inhibition zone at 100 ug/well after 24 hrs by agar well diffusion method; details: read-out: DIZ
Penicillium chrysogenum [22] = test: Antifungal activity against Penicillium chrysogenum assessed as diameter of inhibition zone at 25 ug/well after 48 hrs by agar well diffusion method; details: read-out: DIZ
Klebsiella pneumoniae [23] = test: Antibacterial activity against Klebsiella pneumoniae after 24 hrs by turbidity-based broth dilution assay
Pseudomonas aeruginosa [24] = test: Bactericidal activity against Pseudomonas aeruginosa incubated for 24 hrs followed by regrowth on sterile nutrient broth for 24 hrs
Bacillus subtilis [25] = test: Antibacterial activity against Bacillus subtilis assessed as diameter of inhibition zone at 50 ug/well after 24 hrs by agar well diffusion method; details: read-out: DIZ
Staphylococcus aureus [26] = test: Antibacterial activity against Staphylococcus aureus assessed as diameter of inhibition zone at 50 ug/well after 24 hrs by agar well diffusion method; details: read-out: DIZ
Aspergillus niger [27] = test: Antifungal activity against Aspergillus niger assessed as diameter of inhibition zone at 12.5 ug/well after 48 hrs by agar well diffusion method; details: read-out: DIZ
Penicillium chrysogenum [28] = test: Antifungal activity against Penicillium chrysogenum after 48 hrs by turbidity-based broth dilution assay
Pseudomonas aeruginosa [29] = test: Antibacterial activity against Pseudomonas aeruginosa assessed as diameter of inhibition zone at 50 ug/well after 24 hrs by agar well diffusion method; details: read-out: DIZ
Penicillium chrysogenum [30] = test: Antifungal activity against Penicillium chrysogenum assessed as diameter of inhibition zone at 12.5 ug/well after 48 hrs by agar well diffusion method; details: read-out: DIZ
Klebsiella pneumoniae [31] = test: Antibacterial activity against Klebsiella pneumoniae assessed as diameter of inhibition zone at 100 ug/well after 24 hrs by agar well diffusion method; details: read-out: DIZ
Pseudomonas aeruginosa [32] = test: Ratio of MBC to MIC for Pseudomonas aeruginosa
Pseudomonas aeruginosa [33] = test: Antibacterial activity against Pseudomonas aeruginosa assessed as diameter of inhibition zone at 12.5 ug/well after 24 hrs by agar well diffusion method; details: read-out: DIZ
Aspergillus niger [34] = test: Antifungal activity against Aspergillus niger assessed as diameter of inhibition zone at 25 ug/well after 48 hrs by agar well diffusion method; details: read-out: DIZ
Staphylococcus aureus [35] = test: Antibacterial activity against Staphylococcus aureus assessed as diameter of inhibition zone at 100 ug/well after 24 hrs by agar well diffusion method; details: read-out: DIZ
Klebsiella pneumoniae [36] = test: Bactericidal activity against Klebsiella pneumoniae incubated for 24 hrs followed by regrowth on sterile nutrient broth for 24 hrs

`Cc1cc(SCc2nnc(-c3ccc(Cl)cc3)s2)nc(SCc2nnc(-c3ccc(Cl)cc3)s2)n1` was tested, and the zone of inhibition at 100 µg/disc (Bacillus subtilis [1]) was 29 mm, the zone of inhibition at 12.5 µg/disc (Klebsiella pneumoniae [2]) was 28 mm and the zone of inhibition at 25 µg/disc (Pseudomonas aeruginosa [3]) was 29 mm. The zone of inhibition at 25 µg/disc (Staphylococcus aureus [4]) was 17 mm, the zone of inhibition at 50 µg/disc (Klebsiella pneumoniae [5]) was 32 mm and the zone of inhibition at 100 µg/disc (Penicillium chrysogenum [6]) was 22 mm. For the same compound, the MIC (Aspergillus niger [7]) was 12.5 µg, the zone of inhibition at 100 µg/disc (Aspergillus niger [8]) was 31 mm and the MFC (Aspergillus niger [9]) was 50 µg. The MBC (Bacillus subtilis [10]) was 100, the MIC (Pseudomonas aeruginosa [11]) was 6.25 µg and the MBC (Staphylococcus aureus [12]) was 200 µg. It also gave a zone of inhibition at 50 µg/disc (Penicillium chrysogenum [13]) of 19 mm, a zone of inhibition at 25 µg/disc (Bacillus subtilis [14]) of 23 mm and a zone of inhibition at 50 µg/disc (Aspergillus niger [15]) of 28 mm. It also gave a zone of inhibition at 12.5 µg/disc (Bacillus subtilis [16]) of 21 mm, an MIC (Staphylococcus aureus [17]) of 50 µg and a zone of inhibition at 25 µg/disc (Klebsiella pneumoniae [18]) of 30 mm. It also gave a zone of inhibition at 12.5 µg/disc (Staphylococcus aureus [19]) of 15 mm, an MFC (Penicillium chrysogenum [20]) of 200 µg and a zone of inhibition at 100 µg/disc (Pseudomonas aeruginosa [21]) of 34 mm. The zone of inhibition at 25 µg/disc (Penicillium chrysogenum [22]) was 17 mm, the MIC (Klebsiella pneumoniae [23]) was 12.5 µg and the MBC (Pseudomonas aeruginosa [24]) was 12.5 µg. It also gave a zone of inhibition at 50 µg/disc (Bacillus subtilis [25]) of 26 mm, a zone of inhibition at 50 µg/disc (Staphylococcus aureus [26]) of 19 mm and a zone of inhibition at 12.5 µg/disc (Aspergillus niger [27]) of 24 mm. It also gave an MIC (Penicillium chrysogenum [28]) of 50 µg, a zone of inhibition at 50 µg/disc (Pseudomonas aeruginosa [29]) of 32 mm and a zone of inhibition at 12.5 µg/disc (Penicillium chrysogenum [30]) of 15 mm. The zone of inhibition at 100 µg/disc (Klebsiella pneumoniae [31]) was 35 mm, the Ratio (Pseudomonas aeruginosa [32]) was 2 and the zone of inhibition at 12.5 µg/disc (Pseudomonas aeruginosa [33]) was 26 mm. The zone of inhibition at 25 µg/disc (Aspergillus niger [34]) was 26 mm, the zone of inhibition at 100 µg/disc (Staphylococcus aureus [35]) was 21 mm and the MBC (Klebsiella pneumoniae [36]) was 50 µg.

`CC(=O)N1CCN(c2ccc(OCC3COC(Cn4ccnc4)(c4ccc(Cl)cc4Cl)O3)cc2)CC1` (stereo not given) [KETOCONAZOLE] showed a zone of inhibition at 100 µg/disc (Penicillium chrysogenum [6]) of 39 mm, an MIC (Aspergillus niger [7]) of 6.25 µg and a zone of inhibition at 100 µg/disc (Aspergillus niger [8]) of 37 mm. The zone of inhibition at 50 µg/disc (Penicillium chrysogenum [13]) was 37 mm, the zone of inhibition at 50 µg/disc (Aspergillus niger [15]) was 34 mm and the zone of inhibition at 25 µg/disc (Penicillium chrysogenum [22]) was 36 mm. For the same compound, the zone of inhibition at 12.5 µg/disc (Aspergillus niger [27]) was 29 mm, the MIC (Penicillium chrysogenum [28]) was 12.5 µg and the zone of inhibition at 12.5 µg/disc (Penicillium chrysogenum [30]) was 34 mm. For the same compound, the zone of inhibition at 25 µg/disc (Aspergillus niger [34]) was 31 mm.

Work on `O=C(N[C@H](CO)[C@H](O)c1ccc([N+](=O)[O-])cc1)C(Cl)Cl` [CHLORAMPHENICOL] yielded a zone of inhibition at 100 µg/disc (Bacillus subtilis [1]) of 40 mm, a zone of inhibition at 12.5 µg/disc (Klebsiella pneumoniae [2]) of 38 mm and a zone of inhibition at 25 µg/disc (Pseudomonas aeruginosa [3]) of 27 mm. For the same compound, the zone of inhibition at 25 µg/disc (Staphylococcus aureus [4]) was 32 mm, the zone of inhibition at 50 µg/disc (Klebsiella pneumoniae [5]) was 42 mm and the MIC (Pseudomonas aeruginosa [11]) was 6.25 µg. For the same compound, the zone of inhibition at 25 µg/disc (Bacillus subtilis [14]) was 34 mm, the zone of inhibition at 12.5 µg/disc (Bacillus subtilis [16]) was 32 mm and the MIC (Staphylococcus aureus [17]) was 6.25 µg. It also gave a zone of inhibition at 25 µg/disc (Klebsiella pneumoniae [18]) of 40 mm, a zone of inhibition at 12.5 µg/disc (Staphylococcus aureus [19]) of 30 mm and a zone of inhibition at 100 µg/disc (Pseudomonas aeruginosa [21]) of 32 mm. The MIC (Klebsiella pneumoniae [23]) was 12.5 µg, the zone of inhibition at 50 µg/disc (Bacillus subtilis [25]) was 36 mm and the zone of inhibition at 50 µg/disc (Staphylococcus aureus [26]) was 35 mm. The zone of inhibition at 50 µg/disc (Pseudomonas aeruginosa [29]) was 29 mm, the zone of inhibition at 100 µg/disc (Klebsiella pneumoniae [31]) was 44 mm and the zone of inhibition at 12.5 µg/disc (Pseudomonas aeruginosa [33]) was 25 mm. For the same compound, the zone of inhibition at 100 µg/disc (Staphylococcus aureus [35]) was 37 mm.
